In PubChem BioAssay AID486 (Columbia University Molecular Screening Center, 2006) one finds IC50 data, which are given here for 88 compounds.

Calls of active or inactive are those of the source.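 The calls were made as follows: active = ranking score of 15 or more out of 100, based on fitted potency or summed per-dose inhibition deviations; inactive = the rest.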

For the experiment, the system named is exon1htt(103Q)-mCFP cells, aggregate imaging, high-content. Briefly: mutant huntingtin aggregate clearance potency, dose response, imaging, exon1htt(103Q)-mCFP cells, high-content imaging (AID 486).
For orientation: IC50 means the concentration at which inhibition is half-maximal. For the compound `CC(C)CCNC(=O)C(C)N(Cc1ccc(F)cc1)C(=O)c1ccc(CN2CCCCC2)o1` (stereo not drawn), the IC50 is > 8 µM (inactive).

In the case of `CS(=O)(=O)N1CCN(c2ccccc2NC(=O)c2ccc(-c3ccc(Cl)cc3Cl)o2)CC1`, the IC50 was > 8 µM (inactive).

As to `Cc1ccnc(NC(=O)C2CCCN(S(=O)(=O)c3cnc[nH]3)C2)c1` (stereo not drawn), the IC50 is > 8 µM (inactive).

Regarding `CS(=O)(=O)N(CC(=O)NCCSCc1cccc(Cl)c1)c1ccc2c(c1)OCO2`, the IC50 is > 8 µM (inactive).

For the compound `C=C(C)CSc1nnc(-c2cccc(S(=O)(=O)N(C)C)c2)n1-c1cc(OC)ccc1OC`, the IC50 is > 8 µM (inactive).

Regarding `COc1ccc(S(=O)(=O)Cc2ccc(C(=O)NCCc3ccc(S(N)(=O)=O)cc3)o2)cc1`, the IC50 was > 8 µM (inactive).

As to `O=C(Nc1ccccc1)N(O)c1ccc(Cl)cc1`, the IC50 was > 8 µM (inactive).

As to `CN(C)[C@@H]1C(=O)C(C(N)=O)=C(O)[C@@]2(O)C(=O)C3=C(O)c4c(O)cccc4[C@@](C)(O)[C@H]3[C@H](O)[C@@H]12`, the half-maximal inhibitory concentration (IC50) is below 0.1 µM.

With `CCn1cc(C(=O)NCCC2=CCCCC2)c(=O)c2cc(S(=O)(=O)N(C)C)ccc21`, the IC50 was > 8 µM (inactive).

`Cc1ccccc1NC1=NCCCS1`: the IC50 was > 8 µM (inactive).

Regarding `CN(C)[C@@H]1C(=O)C(C(N)=O)=C(O)[C@@]2(O)C(=O)C3=C(O)c4c(O)ccc(Cl)c4[C@@](C)(O)C3C[C@@H]12` (stereo partly drawn), the IC50 is below 0.01 µM.

Take `Cc1cc(N2CCN(C3CCCC3)CC2)n2c(nc3ccccc32)c1C#N`: the IC50 is > 8 µM (inactive).

For the compound `COC(=O)c1c(N)nc(C)n1-c1ccc(OC)cc1`, the IC50 is > 8 µM (inactive).

As for `COc1ccc(CCNC(=O)c2ccc(N3CCCC3=O)cc2)cc1OC`, the IC50 was > 8 µM (inactive).

Consider `Cc1ncoc1C(=O)Nc1cccc(Cl)c1C`, for which the IC50 is > 8 µM (inactive).

Turning to `CCOC(=O)C1=C(C)NC(SC(C)=O)=NC1c1ccc(OC(C)=O)c(OC)c1` (stereo not drawn), the IC50 was > 8 µM (inactive).

Turning to `Cn1cccc1Cc1nnc(SCC(=O)NCC2CCCO2)n1-c1ccc(F)cc1` (stereo not drawn), the IC50 was > 8 µM (inactive).

For `OCCNC1=NCCN1`, the IC50 is > 8 µM (inactive).

`CCOC(=O)C1CCN(c2nc3ccccc3nc2C(C#N)C(=O)OC(C)C)CC1` (stereo not drawn): the IC50 was > 8 µM (inactive).

Take `O=C(CSc1nnc(-c2ccco2)n1-c1ccccc1)N1CCN(C(=O)c2ccco2)CC1`: the IC50 was > 8 µM (inactive).

On to `CC1(C)CC(=O)C(C=NCCO)=C(O)C1`, for which the IC50 was > 8 µM (inactive).

With `O=C(CSc1nnc(CNC(=O)c2c(F)cccc2Cl)o1)c1ccccc1`, the IC50 is > 8 µM (inactive).

In the case of `O=C(CCN1CCN(c2ccc(F)cc2)CC1)Nc1ccccc1F`, the IC50 is > 8 µM (inactive).

For `CN(C)[C@@H]1C(=O)C(C(N)=O)=C(O)[C@@]2(O)C(=O)C3=C(O)c4c(O)ccc(Cl)c4[C@@H](O)[C@H]3C[C@@H]12`, the IC50 was below 0.01 µM.

Turning to `CCOC(=O)N1CCN(C(=O)c2ccc3c(=O)n(Cc4ccc(OC)cc4)c(=S)[nH]c3c2)CC1`, the IC50 is > 8 µM (inactive).

As for `COCCCNC(=O)C(Cc1ccccc1)NS(=O)(=O)c1ccc2c(c1)c(=O)n(C)c(=O)n2C` (stereo not drawn), the IC50 is > 8 µM (inactive).

Take `Cc1nnc(SC(=O)N2c3ccccc3Sc3ccccc32)s1`: the IC50 is > 8 µM (inactive).

For the compound `Cn1c(=O)oc2cc(S(=O)(=O)NC3CCN(Cc4ccccc4)CC3)ccc21`, the IC50 was > 8 µM (inactive).

As to `O=C(Nc1cnn(Cc2ccc(Cl)cc2Cl)c1)c1noc2c1CCCC2`, the IC50 is > 8 µM (inactive).

For the compound `Cc1cc(C)c(C)c(S(=O)(=O)Nc2ccc(O)cc2)c1C`, the IC50 is > 8 µM (inactive).

In the case of `O=C(NC1CCCc2ccccc21)c1ccc(CNc2c(N3CCOCC3)c(=O)c2=O)cc1` (stereo not drawn), the IC50 is > 8 µM (inactive).

Turning to `Cn1c(=O)n(C)c2cc(NC(=O)C(F)(F)F)ccc21`, the IC50 was > 8 µM (inactive).

Consider `CC1(C)Cc2ccccc2C(N)=C1C#N`, for which the IC50 was > 8 µM (inactive).

With `COc1ccc(CNc2nc3nc(C)cc(C)n3n2)cc1OC`, the IC50 was > 8 µM (inactive).

For the compound `CCOC(=O)c1cc2c(=O)n3ccccc3nc2n(CCCOC)c1=NC(=O)C(C)(C)C`, the IC50 was > 8 µM (inactive).

For the compound `Cc1nc(C)n(C(C)CC(=O)O)n1` (stereo not drawn), the IC50 was > 8 µM (inactive).

In the case of `CCOC(=O)c1sc(NC(=O)c2c(C)nn(Cc3ccccc3)c2C)cc1C`, the IC50 is > 8 µM (inactive).

In the case of `Nc1nonc1NC(=O)CSc1nc2ccccc2s1`, the IC50 is > 8 µM (inactive).

As to `Cc1c(C(=O)NCc2cccnc2)oc2ccc(S(=O)(=O)N3CCCCC3)cc12`, the IC50 is > 8 µM (inactive).

As to `Cc1ccc(/C=c2\sc3nc(-c4ccccc4Br)nn3c2=O)o1`, the IC50 was > 8 µM (inactive).

In the case of `O=C(O)CCn1[nH]c(=O)ccc1=O`, the IC50 is > 8 µM (inactive).

Take `CCn1c(C(=O)N2CCCC(C(=O)NCCCc3ccccc3)C2)cc2sccc21` (stereo not drawn): the IC50 was > 4 µM (inactive).

In the case of `O=C(c1ccc(=O)[nH]c1)N(Cc1ccco1)C1(C(=O)NC2CCCC2)CCCCC1`, the IC50 was > 8 µM (inactive).

Regarding `O=C(Nc1nccs1)c1ccc(Cl)c(S(=O)(=O)N2CCCCC2)c1`, the IC50 is > 8 µM (inactive).

Turning to `Cc1ccc(Nc2nc(N)nc(CN3CCN(Cc4ccc5c(c4)OCO5)CC3)n2)cc1`, the IC50 was > 8 µM (inactive).

On to `O=C(NCc1ccco1)c1ccccc1Nc1ccc(F)cc1`, for which the IC50 is > 8 µM (inactive).

Turning to `Cn1c(-c2ccc(F)cc2)cnc1SCC(=O)Nc1ccccc1N1CCOCC1`, the IC50 was > 8 µM (inactive).

`COc1ccc(CCNC(=O)C2=COCCO2)cc1`: the IC50 was > 8 µM (inactive).

In the case of `Nc1cc(-c2ccccc2)ccc1O`, the IC50 is > 8 µM (inactive).

With `CCn1ncc(C2=NOC(C(=O)NCc3ccccc3)C2)c1C` (stereo not drawn), the IC50 was > 8 µM (inactive).

For the compound `COc1ccc(OC)c(C(=O)CSc2nnc(-c3ccc(OC)c(OC)c3)o2)c1`, the IC50 is > 8 µM (inactive).

For `CC(C)(NC(=O)N1CCCC1)c1cccc(C(C)(C)NC(=O)N2CCCC2)c1`, the IC50 is > 8 µM (inactive).

Consider `COc1ccc(NC(=O)CCc2nc(-c3ccccc3F)no2)cc1`, for which the IC50 is > 8 µM (inactive).

In the case of `COc1ccc(Cc2nnc3n2N=C(c2cc4ccccc4o2)CS3)cc1OC`, the IC50 was > 8 µM (inactive).

`Cc1cc(NC(=O)c2ccc(Cl)cc2)no1`: the IC50 was > 8 µM (inactive).

On to `Cc1ccc(O)c(C(=O)c2cc(C#N)c(=O)n(CC3CCCO3)c2)c1` (stereo not drawn), for which the IC50 is > 8 µM (inactive).

On to `CCCCNC(=O)CSc1nc2ccc(N3CCOCC3)cc2c(=O)n1CCc1ccccc1`, for which the IC50 was > 8 µM (inactive).

With `Cc1nc(NC2=NCN(CC3CCCO3)CN2)nc2ccccc12` (stereo not drawn), the IC50 was > 8 µM (inactive).

In the case of `CN(C)[C@@H]1C(=O)C(C(N)=O)=C(O)[C@@]2(O)C(=O)C3=C(O)c4c(O)cccc4[C@@](C)(O)[C@H]3C[C@@H]12`, the IC50 was 0.08 µM.

For `COc1ccc(-c2nc(C#N)c(N3CCOCC3)o2)cc1OC`, the IC50 was > 8 µM (inactive).

As for `COc1ccccc1-n1c(=O)c2c3c(sc2n2c(SC(C)C)nnc12)CCC3`, the IC50 is > 8 µM (inactive).

Consider `CCCCc1nccn1CCn1ccnc1CCCC`, for which the IC50 is > 8 µM (inactive).

On to `CC(C)(C)NC(=O)CN(Cc1cccs1)C(=O)c1csnn1`, for which the IC50 is > 8 µM (inactive).

Turning to `CSc1ccccc1NC(=O)c1c(Br)cnn1C`, the IC50 was > 8 µM (inactive).

In the case of `CC(OC1=CC(=O)CCC1)C(=O)c1ccccc1` (stereo not drawn), the IC50 was > 8 µM (inactive).

On to `CCOC(=O)c1sc2ncn(/N=C/N(C)C)c(=O)c2c1C`, for which the IC50 is > 8 µM (inactive).

For `CCN(CC)c1ccc2cc(-c3nc4ccccc4[nH]3)c(=O)oc2c1`, the IC50 was > 8 µM (inactive).

Consider `C#CC1(O)CC(C)N(C)C(C)C1` (stereo not drawn), for which the IC50 was > 8 µM (inactive).

With `CCOc1cc(C(=O)Nc2ncccn2)cc(OCC)c1OCC`, the IC50 is > 8 µM (inactive).

Take `CN(C)C(=O)N1CCC(C(=O)NC2CCCCCCC2)CC1`: the IC50 is > 8 µM (inactive).

With `COc1ccc(N2CCC(CNS(=O)(=O)c3cccc(C(F)(F)F)c3)C2)cc1` (stereo not drawn), the IC50 was > 8 µM (inactive).

Turning to `O=C1NC(=O)C(CC(=O)N(Cc2ccco2)C2(C(=O)NC3CCCC3)CCCCC2)N1` (stereo not drawn), the IC50 is > 8 µM (inactive).

With `COC(=O)c1oc2ccc(Br)cc2c1NC(C)=O`, the IC50 was > 8 µM (inactive).

Take `COc1ccc(-c2nnc(SCC#N)o2)cc1`: the IC50 was > 8 µM (inactive).

`Cn1c(=O)c2c(nc(NCc3ccc4c(c3)OCO4)n2Cc2ccccc2F)n(C)c1=O`: the IC50 was > 8 µM (inactive).

In the case of `CN(C)c1ccc(O)c2c1CC1CC3[C@@H](N(C)C)C(=O)C(C(N)=O)=C(O)[C@]3(O)C(=O)C1=C2O` (stereo partly drawn), the IC50 is below 0.1 µM.

Take `Cc1cc(C)c(OCC(=O)Nc2cccc(O)c2)cc1C`: the IC50 was > 8 µM (inactive).

Consider `COc1cccc(C2C(C(=O)c3ccc(C)o3)=C(O)C(=O)N2CCCN(C)C)c1` (stereo not drawn), for which the IC50 was > 8 µM (inactive).

As for `O=C(Nc1ncnc2sc3c(c12)CCCCC3)c1ccco1`, the IC50 was > 8 µM (inactive).

With `Cc1ccccc1OCC(O)CN` (stereo not drawn), the IC50 is > 8 µM (inactive).

For `O=C1Nc2ccccc2OC1CC(=O)N1CCCC1` (stereo not drawn), the IC50 is > 8 µM (inactive).

For the compound `CCOc1ccc(NS(=O)(=O)c2ccc(OCC(=O)N3CCCC3)cc2)cc1`, the IC50 was > 8 µM (inactive).

`CC(C)(C)OC(=O)N1CC=C2C(C#N)=C(N)C(C#N)(C#N)[C@H](c3cccnc3)[C@H]2C1`: the IC50 is > 8 µM (inactive).

`Cc1ccccc1-n1c(=O)cc(NCc2ccc3c(c2)OCO3)[nH]c1=O`: the IC50 is > 8 µM (inactive).

As to `CCOc1cc(C(=O)N2CCN(c3ccccc3)CC2)cc(OCC)c1OCC`, the IC50 was > 8 µM (inactive).

`O=c1oc2c3c4c(cc2cc1-c1nc2ccccc2[nH]1)CCCN4CCC3`: the IC50 is > 8 µM (inactive).

Consider `COc1ccc(CCNC(=O)CSc2nnc(CNc3ccc(Cl)cc3)o2)cc1OC`, for which the IC50 was > 8 µM (inactive).

`O=C(C1COc2ccccc2O1)N1CCCC1` (stereo not drawn): the IC50 is > 8 µM (inactive).
